Test results from patent US20250011726A1, “METHODS AND COMPOSITIONS FOR MAINTAINING AGGREGATE STABILITY AND PLURIPOTENCY OF STEM CELLS” (Trailhead Biosystems Inc., priority 2023, published 2025).

What was measured:
hiPSCs = test: Pluripotency marker expression by flow cytometry and qPCR; type: cell-based, human; settings: for factor contribution (FC), NANOG optimization: MODDE optimizer for NANOG
Protocol: 3 ml sample was taken from each bioreactor on day 4 of the culture for qPCR testing. RNA samples were dissolved in Trizol and extracted. Quantification of RNA was performed on epoch reader. A high-Capacity cDNA RT Kit was used for reverse transcription of RNA samples of each bioreactor. 3 replicate samples of cDNA were obtained from 3 replicate samples of each bioreactor. Data collection was performed using QuantStudio for qPCR testing. The runs were performed per the manufacturer's protocol and recommendations. The primers used were NANOG, SOX2, POU5F1 and GAPDH. The data set obtained was then exported to Excel and normalized against corresponding housekeeping gene GAPDH. Final expression levels were expressed as 1/(2^Crt)×1000 and inputted into the MODDE software. A 3 ml sample was taken from each bioreactor on day 4 of the culture for flow testing. The aggregates were dissociated with Accutase for 10 minutes into single cells. Cells were resuspended in PBS and divided into samples for intracellular staining and cells for extracellular staining. Sample for intracellular staining were fixed with a live/dead stain FVS 780, then permeabilized and stained for OCT4 and SOX2.
Pluripotency data was assessed at the end of the experiment through Immunohistochemistry (IHC), flow cytometry and qPCR testing. The experiment was divided into two batches of experiments to be run at different times. Three replicated center point experiments with all five additives at mid-concentrations were used and split between the batches for normalization and model evaluation purposes. The optimization criteria were based on multiple attributes related to aggregate stability, cell growth and pluripotency. Mathematical models were generated and tuned for maximal predictive power and fit. The model responses for each parameter were statistically evaluated for model reproducibility, model validity, fit (R2) and prediction precision (Q2). […] The model had model validity above 0.25 indicating the absence of problems related to outliers and transformation issues.
Attaining maximal growth conditions of iPSC is not meaningful unless the iPSC state characteristics is also maintained. […] At the end of the experiment, using flow cytometry we tested for SSEA4, OCT4, SOX2 and TRA-1-60 while a complimentary q-PCR assessment was conducted for NANOG, OCT4 and SOX2. The results of these experiments were used to model the effect of the additives on pluripotency. […] This is because that until proven that individual factors are not in regulatory conflict (i.e., SOX2, NANOG, or OCT4 being subject to differential control), single-response factor optimization is prudent. As we found, these factors are indeed subject to differential control.

hiPSC aggregates = test: Aggregate size, deviation and Aggregate % Error in bioreactor; type: cell-based, human; settings: DS and pluronic F68 at low concentrations; heparin sodium salt and PEG present; FIG. 4B
Protocol: Samples from the bioreactor were taken after slightly mixing using a pipette to avoid sampling bias and gradient formation after settling. 3 ml total was sampled daily for 3 samples of 1 ml for cell count. The cells were first dissociated using Accutase and incubated for 10minutes. Cells were then quenched with E8 then centrifuged at 400×g for 6 minutes. The pellet was resuspended in the same volume of PBS. Samples were then analyzed for total cell count using Attune flow. 3 replicate counts were collected for each bioreactor for each day of culture. 2 samples were collected for aggregate imaging of 500 ul and put on a 24 well plate. EVOS 7000 was used for bright field images of the aggregates. […] A minimum of 30 aggregates were measured for each bioreactor every day of the culture. […] The cell counts were also analyzed for doubling time using GraphPad Prism. […] Using the aggregate size generated from day 1 from all bioreactors and their corresponding cell growth rate, a predicted aggregate size was calculated for day 3 and compared to the actual size measured. The predicted aggregate size was calculated from theoretical aggregate volume. […]
From the cell number, the predicted aggregate volume (V3P) was calculated again from the first equation. […] This is calculated by subtracting the predicted from the actual average size measured and divided by the actual value: […]

[1] = coefficients of flow and qPCR markers, FIG. 3B

Substance	factor contribution (FC), NANOG optimization (hiPSCs)	contribution factor, optimizer for target aggregate % error of 0 (hiPSC aggregates)	impact on NANOG (coefficient) (hiPSCs; [1])	impact on OCT4 (coefficient) (hiPSCs; [1])
Heparin sodium salt [reference compound]	21.12	21.71	–	–
dextran sulfate [DS]	48.04	28.05	positive	negative
